Assays:
androgenic alopecia = details: 1 milligram per day, 24 months, 100 men; cited from earlier work
5α-Reductase Type 1 = molecular target: T1, 5α-Reductase Type 1 (Homo sapiens, UniProt P18405); assay: inhibition of 5α-Reductase Type 1 enzyme; type: biochemical
T1 sequence (P18405 1-259): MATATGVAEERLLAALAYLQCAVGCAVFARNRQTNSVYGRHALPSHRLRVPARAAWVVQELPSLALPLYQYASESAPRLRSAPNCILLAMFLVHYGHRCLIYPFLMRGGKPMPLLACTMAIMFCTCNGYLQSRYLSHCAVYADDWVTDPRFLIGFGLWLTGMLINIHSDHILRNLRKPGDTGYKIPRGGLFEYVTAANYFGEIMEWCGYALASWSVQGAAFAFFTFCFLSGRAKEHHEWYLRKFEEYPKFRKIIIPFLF
From the text: (§1) The different free fatty acids of medium and long saturated chains and long unsaturated chains are shown, together with esterified fatty acids, oxidized fatty acids, fatty alcohols, phytosterols, and other components. The magnitude of the activity is designated by “none,” “moderate” or “very active” (FIG. 3). The various constituents shown in the table of FIG. 2 are also shown and listed as free fatty acid molecules with: a) medium, saturated chains, b) long, saturated chains, and c) long unsaturated chains. There are esterified fatty acids, oxidized fatty acids, and fatty alcohols. These tables support other evidence that the five active free fatty acids for prostate and hair health are lauric, myristic, oleic, linoleic and linolenic free fatty acids.
Reference is now made to FIGS. 7B and 7C showing the use of a supercritical CO2 extracted LSESr and Permixon®.

5α-Reductase Type 2 = molecular target: T2, 5α-Reductase Type 2 (Homo sapiens, UniProt P31213); assay: inhibition of 5α-Reductase Type 2 enzyme (Inhibition Experiments 1 and 2); type: biochemical
T2 sequence (P31213 1-254): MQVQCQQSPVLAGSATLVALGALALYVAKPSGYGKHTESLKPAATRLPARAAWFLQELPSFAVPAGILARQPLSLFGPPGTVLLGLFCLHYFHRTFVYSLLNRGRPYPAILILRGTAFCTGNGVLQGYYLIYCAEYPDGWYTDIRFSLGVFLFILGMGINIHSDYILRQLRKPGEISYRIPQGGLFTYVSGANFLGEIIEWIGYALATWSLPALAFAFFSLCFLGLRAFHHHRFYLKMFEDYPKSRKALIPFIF
From the text: as §1
Data are shown in the graphs and bar charts of FIGS. 5 and 6 where data are reported as the effectiveness to inhibit enzyme activity (IC50). […]
Inhibition Experiment 2 shown in FIG. 6 determined the possible impact of Permixon® product matrix (PEG) on an in vitro assay and the pegylated and conventional ultra-high purity supercritical CO2 extract having the PEG matrix (U4602-PEG) was compared to the commercially available Permixon® and the conventional unpegylated product (U4602) for their ability to inhibit the 5α-Reductase 2 enzyme. […]

hair growth = details: normal shaved mice, after about 20 days; cited from earlier work

Compound	men who noted an improvement (androgenic alopecia) [%]	effectiveness for 5α-Reductase-1 (in words) (5α-Reductase Type 1)	effectiveness for 5α-Reductase-2 (in words) (5α-Reductase Type 2)	hair growth (hair growth)
CC(C)(C)NC(=O)[C@H]1CC[C@H]2[C@@H]3CC[C@H]4NC(=O)C=C[C@]4(C)[C@H]3CC[C@]12C [finasteride]	68			
CCCCCCCC/C=C\CCCCCCCC(=O)O [oleic acid]		especially effective	not as much	
CCCCC/C=C\C/C=C\CCCCCCCC(=O)O [linoleic acid]			beneficial for both	about 100%

— patent US12648983B2 (U.S. NUTRACEUTICALS, INC., priority 2021, dated 2026)
